Measurements published in patent US5164390A, “6-substituted purinyl piperazine derivatives” (Ortho Pharmaceutical Corporation, priority 1991, dated 1992).
Where two headings read alike, the source gives them in different places.

System: Adult mongrel dogs
Test: Cardiotonic activity: hemodynamic and inotropic responses (MAP, HR, dP/dt, contractile force) in anesthetized dogs, iv infusion
Type: in vivo, mongrel dog
Settings: Canis lupus familiaris; for ED50: dose producing a 50% increase above baseline in myocardial contractile force, iv, read-out: contractile force (CF) ED50
Description: Adult mongrel dogs were anesthetized with sodium pentobarbital (45 mg/kg, i.p.) and artificially respired. Mean arterial pressure (MAP) was recorded from a cannulated femoral artery and drugs were infused into a cannulated femoral vein. The arterial pressure pulse was used to trigger a cardiotachometer for determination of heart rate (HR). Left ventricular pressure was measured with a Millar catheter and dP/dtmax was derived. A right thoracotomy was performed and myocardial contractile force (CF) was measured with a Walton Brodie strain gauge sutured to the right ventricle. The ventricular muscle was stretched to produce a baseline tension of 100 g. A standard dose of dopamine (10-15 ug/kg/min for 3 min) was administered to determine myocardial responsiveness to inotropic stimulation.
Test compounds were solubilized in a small volume of DMF diluted to a final concentration of 10% in physiological saline. Alternatively, where possible, a soluble hydrochloride salt was prepared by addition of 0.1N HCl diluted in physiological saline. Vehicles were tested in appropriate volumes and found to exert less than a 5% effect on contractile force. For iv studies, compounds were administered by infusion pump (one drug per animal) at rates of 0.58-2.2 mL/min in three to four stepwise increasing doses. Each dose was infused over 5 min immediately after the effect of the previous dose peaked. MAP, HR, dP/dtmax and CF responses were continuously monitored on a Beckman or Gould recorder and expressed as a percent change from pre-drug control values vs. the cumulative dose of drug administered. For these studies, n represents the number of test animals used.
Quantitation of the inotropic potency was obtained by calculation of the contractile force (CF) ED50. This was defined as the dose of compound that produced a 50% increase above baseline in myocardial contractile force. The value was obtained from three to four point dose-response curves using either graphical estimation (n<3) or linear regression analysis (n≥3). Numbers in parentheses are number of animals screened.

[1] = Table 1, 1.875 mg/kg iv, cumulative dose, read-out: CF (myocardial contractile force), % from Control
[2] = Table 1, 1.875 mg/kg iv, cumulative dose, read-out: HR (heart rate), % from Control
[3] = Table 1, 1.875 mg/kg iv, cumulative dose, read-out: MAP (mean arterial pressure), % from Control
[4] = Table 1, 1.875 mg/kg iv, cumulative dose, read-out: dPdt (left ventricular dP/dtmax), % from Control
[5] = range in parentheses on next line
[6] = Table 2, 1.875 mpk iv, read-out: CF (myocardial contractile force), percent change from pre-drug control
[7] = Table 2, 1.875 mpk iv, read-out: HR (heart rate), percent change from pre-drug control
[8] = Table 2, 1.875 mpk iv, read-out: MAP (mean arterial pressure), percent change from pre-drug control
[9] = Table 2, 1.875 mpk iv, read-out: dP/dt (left ventricular dP/dtmax), percent change from pre-drug control

Row | SMILES | change in vivo at 1.875 mg/kg [1] [%] | change in vivo at 1.875 mg/kg [2] [%] | change in vivo at 1.875 mg/kg [3] [%] | change in vivo at 1.875 mg/kg [4] [%] | ED50 [5] [mg/kg] | ED50 [mg/kg] | change in vivo at 1.875 mg/kg [6] [%] | change in vivo at 1.875 mg/kg [7] [%] | change in vivo at 1.875 mg/kg [8] [%] | change in vivo at 1.875 mg/kg [9] [%]
1 | OC(CSc1ncnc2[nH]cnc12)CN1CCN(C(c2ccc(F)cc2)c2ccc(F)cc2)CC1 (stereo not shown) [Example 1, 6-[1-[1-[Bis(4-fluorophenyl)methyl]piperazine-4-yl]-2-hydroxy-3-propanylthio]purine Hemihydrate] | 214 | 1 | -5 | 127 | 0.16 | – | – | – | – | –
2 | O[C@H](CSc1ncnc2nc[nH]c12)CN1CCN(C(c2ccc(F)cc2)c2ccc(F)cc2)CC1 [Example 2, (2S)-(+)-6-[1-[1-[Bis(4-fluorophenyl)methyl]piperazin-4-yl]-2-hydroxy-3-propanylthio]purine] | 212 | -6 | -13 | 168 | 0.07 | – | – | – | – | –
3 | O[C@@H](CSc1ncnc2nc[nH]c12)CN1CCN(C(c2ccc(F)cc2)c2ccc(F)cc2)CC1 [Example 3, (2R)-(-)-6-[1-[1-[Bis(4-fluorophenyl)methyl]piperazin-4-yl]-2-hydroxy-3-propanylthio]purine] | 151 | -8 | -4 | 91 | 0.35 | – | – | – | – | –
4 | OC(CSc1ncnc2[nH]cnc12)CN1CCN(C(c2ccccc2)c2ccccc2)CC1 (stereo not shown) [Example 4, 6-[2-Hydroxy-3-(1-(diphenylmethyl)piperazin-4-yl)propan-1-yl]triopurine Hemihydrate] | 86 | -1 | -12 | 60 | – | – | – | – | – | –
5 | OC(CSc1ncnc2[nH]cnc12)CN1CCN(Cc2ccccc2)CC1 (stereo not shown) [Example 5, 6-[1-[1-(Benzyl)piperazin-4-l]-2-hydroxy-3-propanylthio]purine Monomalonate.cndot.5/2 Hydrate] | 43 | 5 | -3 | 58 | – | – | – | – | – | –
6 | OC(CSc1ncnc2[nH]cnc12)CN1CCN(Cc2ccc3c(c2)OCO3)CC1 (stereo not shown) [Example 6, 6-[3-[4-(1,3-Benzodioxol-5-yl)methyl]piperazin-1-yl]-2-hydroxyprop-1-ylthio]purine Sesquihydrate] | 79 | 15 | 4 | 80 | – | – | – | – | – | –
7 | OC(CSc1ncnc2[nH]cnc12)CN1CCN(C(c2ccccc2)c2ccc(Cl)cc2)CC1 (stereo not shown) [Example 7, 6-[1-[1-(4-Chlorobenzhydryl)]piperazin-4-yl]-2-hydroxy-3-propanylthio]purine Monohydrate] | 97 | 0 | 1 | 75 | – | – | – | – | – | –
8 | OC(CSc1ncnc2[nH]cnc12)CN1CCN(C(c2ccc(C(F)(F)F)cc2)c2cccc(C(F)(F)F)c2)CC1 (stereo not shown) [Example 10, 6-[1-[1-(3,4'[Bis(trifluoromethylphenyl)methyl])piperazin-4-yl]-2-hydroxy-3-propanylthio]purine] | 71 | 0 | 5 | 47 | – | – | – | – | – | –
9 | CC(=O)OC(CSc1ncnc2[nH]cnc12)CN1CCN(C(c2ccc(F)cc2)c2ccc(F)cc2)CC1 (stereo not shown) [Example 11, 6-[1-[1-[Bis(4-fluorophenyl)methyl]piperazin-4-yl]-2-acetoxy-3-propanylthio]purine 3/4 Hydrate] | 145 | -4 | -12 | 62 | – | 0.45 | – | – | – | –
10 | Fc1ccc(C(c2ccc(F)cc2)N2CCN(CCCSc3ncnc4nc[nH]c34)CC2)cc1 [Example 14, 6-[1-[1-[Bis(4-fluorophenyl)methyl]piperazin-4-yl]-3-propanylthio]purine] | 38 | 2 | -6 | 17 | – | – | – | – | – | –
11 | OC(CSc1ncnc2[nH]cnc12)CN1CCC(=C(c2ccc(F)cc2)c2ccc(F)cc2)CC1 (stereo not shown) [Example 15, 6-[1-[4-[Bis(4'-fluorophenyl)methylene]-1-piperidinyl]-2-hydroxy-3-propanylthio]purine Hemihydrate] | 87 | -7 | -14 | 28 | – | 0.725 | – | – | – | –
12 | OC(CSc1ncnc2[nH]cnc12)CN1CCN(C(c2ccc(Cl)cc2)c2ccc(Cl)cc2)CC1 (stereo not shown) [Example 16, 6-[1-[1-[Bis(4-chlorophenyl)methyl]piperazin-4-yl]-2 hydroxy-3-propanylthio]purine.cndot.5/4 Hydrate] | 151 | -4 | 9 | 99 | – | 0.608 | – | – | – | –
13 | OC(COc1ncnc2c1ncn2C1CCCCO1)CN1CCN(C(c2ccc(F)cc2)c2ccc(F)cc2)CC1 (stereo not shown) [Example 17] | 37 | 0 | -13 | 16 | – | – | – | – | – | –
14 | OC(COc1ncnc2[nH]cnc12)CN1CCN(C(c2ccc(F)cc2)c2ccc(F)cc2)CC1 (stereo not shown) [Example 18, 6-[3-[4-Bis(4-fluorophenyl)methyl]piperazin-1-yl-2-hydroxy]propoxypurine] | 80 | 12 | 4 | 58 | – | 0.825 | – | – | – | –
15 | OC(COc1ncnc2c1ncn2C1CCCCO1)CN1CCN(C(c2ccccc2)c2ccccc2)CC1 (stereo not shown) [Example 19] | 43 | 3 | 2 | 19 | – | – | – | – | – | –
16 | OC(COc1ncnc2nc[nH]c12)CN1CCN(C(c2ccccc2)c2ccccc2)CC1 (stereo not shown) [Example 20, 6-[3-[4-(Diphenylmethyl)piperazin-1-yl]-2-hydroxypropoxy]-purine] | 66 | 2 | 4 | 36 | – | – | – | – | – | –
17 | OC(CSc1ncnc2[nH]cnc12)CN1CCN(C(c2cccc(C(F)(F)F)c2)c2cccc(C(F)(F)F)c2)CC1 (stereo not shown) [Example 23, 6-[1-[1-[Bis(3-trifluoromethylphenyl)methyl]piperazin-4-yl]-2-hydroxy-3-propanylthio]purine Hemihydrate] | – | – | – | – | – | – | 44 | -7 | 7 | 30
18 | OC(CSc1ncnc2[nH]c(-c3ccccc3)nc12)CN1CCN(C(c2ccc(F)cc2)c2ccc(F)cc2)CC1 (stereo not shown) [Example 24, 6-[1-[1-[Bis(4-fluorophenyl)methyl]piperazin-4-yl]-2-hydroxy-3-propanylthio]-8-phenylpurine.cndot.1/3Hydrate] | – | – | – | – | – | – | 12 | 4 | -3 | 5
19 | Nc1nc(SCC(O)CN2CCN(C(c3ccc(F)cc3)c3ccc(F)cc3)CC2)c2nc[nH]c2n1 (stereo not shown) [Example 25, 2-Amino-6-[1-[1-bis(4-fluorophenyl)methyl]piperazin-4-yl]-2-hydroxy-3-propanyl-thio]purine Hemihydrate] | – | – | – | – | – | – | 84 | 9 | -15 | 23
20 | COC(=O)CCn1cnc2c(SCC(CN3CCN(C(c4ccc(F)cc4)c4ccc(F)cc4)CC3)OC(C)=O)ncnc21 (stereo not shown) [Example 26, 6-[1-[1-[Bis(4-fluorophenyl)methyl]piperazin-4-yl-]-2-acetoxy-3-propanylthio]purin-9-yl-3-propanoic acid, methyl ester] | – | – | – | – | – | – | 34 | -3 | -10 | 29
21 | CCN(CC(O)CN1CCN(C(c2ccc(F)cc2)c2ccc(F)cc2)CC1)c1ncnc2nc[nH]c12 (stereo not shown) [Example 27, 6-[3-[4-[Bis(4-fluorophenyl)methyl]piperazin-1-yl]-2-hydroxypropyl-N-ethylamino]purine] | – | – | – | – | – | – | 10 | 6 | 3 | 14
